Columns and labels:
Conditions in all cases: exposure time: 72 h
E57 [1] = patient-derived glioblastoma stem cells of mesenchymal subtype; assay: phenotypic distance (Euclidean, principal components) from DMSO controls (arbitrary units); higher = stronger morphological change
E21 [2] = patient-derived glioblastoma stem cells of mesenchymal subtype; assay: as above
E34 [3] = patient-derived glioblastoma stem cells of proneural subtype; assay: as above
E13 [4] = patient-derived glioblastoma stem cells of classical subtype; assay: as above
FT3469 [5] = normal neural stem cell line; assay: as above
E28 [6] = patient-derived glioblastoma stem cells of classical subtype; assay: as above
E57 [7] = assay: surviving fraction (nuclei count normalised to DMSO); higher = more cells surviving (less toxic)
E21 [8] = assay: as above
E34 [9] = assay: as above
E13 [10] = assay: as above
FT3469 [11] = assay: as above
E28 [12] = assay: as above
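Throughout, for phenotypic distance (Euclidean, principal components) from DMSO controls: cell Painting imaging in 384-well plates, CellProfiler features reduced to at least 20 principal components, Euclidean distance versus same-plate DMSO vehicle wells (0.1% v/v), median over six images per well.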
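Throughout, for surviving fraction (nuclei count normalised to DMSO): nuclei counted by high-content imaging of Hoechst-stained cells in laminin-coated 384-well plates, relative to 0.1% DMSO vehicle wells, with staurosporine as cell-death control.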

CN[C@@H](C)C(=O)N[C@H](C(=O)N1CCC[C@H]1C(=O)N[C@H]1c2ccccc2C[C@H]1OCC#CC#CCO[C@@H]1Cc2ccccc2[C@@H]1NC(=O)[C@@H]1CCCN1C(=O)[C@@H](NC(=O)[C@H](C)NC)C1CCCCC1)C1CCCCC1 [AZD5582]
Conditions	phenotypic distance	surviving fraction
E13 [4], 4.1 nM	1.42	–
E13 [4], 12.3 nM	1.1	–
E13 [4], 37 nM	1.5	–
E13 [4], 111.1 nM	1.31	–
E13 [4], 333.3 nM	1.39	–
E13 [4], 1000 nM	1.63	–
E13 [4], 3000 nM	1.79	–
E13 [10], 4.1 nM	–	0.897
E13 [10], 12.3 nM	–	0.9073
E13 [10], 37 nM	–	0.764
E13 [10], 111.1 nM	–	0.8218
E13 [10], 333.3 nM	–	0.814
E13 [10], 1000 nM	–	0.789
E13 [10], 3000 nM	–	0.755
E21 [2], 4.1 nM	1.08	–
E21 [2], 12.3 nM	1.03	–
E21 [2], 37 nM	1.42	–
E21 [2], 111.1 nM	1.39	–
E21 [2], 333.3 nM	1.47	–
E21 [2], 1000 nM	1.24	–
E21 [2], 3000 nM	1.92	–
E21 [8], 4.1 nM	–	0.73
E21 [8], 12.3 nM	–	0.739
E21 [8], 37 nM	–	0.742
E21 [8], 111.1 nM	–	0.721
E21 [8], 333.3 nM	–	0.628
E21 [8], 1000 nM	–	0.633
E21 [8], 3000 nM	–	0.5049
E28 [6], 4.1 nM	0.701	–
E28 [6], 12.3 nM	0.512	–
E28 [6], 37 nM	0.645	–
E28 [6], 111.1 nM	0.558	–
E28 [6], 333.3 nM	0.744	–
E28 [6], 1000 nM	0.712	–
E28 [6], 3000 nM	2.48	–
E28 [12], 4.1 nM	–	0.975
E28 [12], 12.3 nM	–	1
E28 [12], 37 nM	–	0.978
E28 [12], 111.1 nM	–	1.01
E28 [12], 333.3 nM	–	1.021
E28 [12], 1000 nM	–	0.944
E28 [12], 3000 nM	–	0.802
E34 [3], 4.1 nM	0.7	–
E34 [3], 12.3 nM	0.804	–
E34 [3], 37 nM	0.881	–
E34 [3], 111.1 nM	1.07	–
E34 [3], 333.3 nM	0.735	–
E34 [3], 1000 nM	0.779	–
E34 [3], 3000 nM	1.26	–
E34 [9], 4.1 nM	–	0.925
E34 [9], 12.3 nM	–	0.838
E34 [9], 37 nM	–	0.855
E34 [9], 111.1 nM	–	0.911
E34 [9], 333.3 nM	–	0.9
E34 [9], 1000 nM	–	0.847
E34 [9], 3000 nM	–	0.764
E57 [1], 4.1 nM	0.861	–
E57 [1], 12.3 nM	1.22	–
E57 [1], 37 nM	1.41	–
E57 [1], 111.1 nM	2.04	–
E57 [1], 333.3 nM	2.285	–
E57 [1], 1000 nM	2.41	–
E57 [1], 3000 nM	2.795	–
E57 [7], 4.1 nM	–	0.95
E57 [7], 12.3 nM	–	0.901
E57 [7], 37 nM	–	0.824
E57 [7], 111.1 nM	–	0.756
E57 [7], 333.3 nM	–	0.756
E57 [7], 1000 nM	–	0.719
E57 [7], 3000 nM	–	0.771
FT3469 [5], 4.1 nM	0.951	–
FT3469 [5], 12.3 nM	1.11	–
FT3469 [5], 37 nM	1.34	–
FT3469 [5], 111.1 nM	0.955	–
FT3469 [5], 333.3 nM	0.844	–
FT3469 [5], 1000 nM	1.57	–
FT3469 [5], 3000 nM	1.61	–
FT3469 [11], 4.1 nM	–	1.01
FT3469 [11], 12.3 nM	–	0.996
FT3469 [11], 37 nM	–	1.07
FT3469 [11], 111.1 nM	–	1.03
FT3469 [11], 333.3 nM	–	1.09
FT3469 [11], 1000 nM	–	0.918
FT3469 [11], 3000 nM	–	0.951

CN1C(=O)[C@@]23C[C@]4([C@]56C[C@@]78SS[C@@](CO)(C(=O)N7[C@H]5Nc5ccccc56)N(C)C8=O)c5ccccc5N[C@@H]4N2C(=O)[C@]1(CO)SS3 [Chaetocin]
Conditions	phenotypic distance	surviving fraction
E13 [4], 4.1 nM	2.76	–
E13 [4], 12.3 nM	3.18	–
E13 [4], 37 nM	5.87	–
E13 [4], 111.1 nM	7.1	–
E13 [4], 333.3 nM	10.5	–
E13 [4], 1000 nM	9.83	–
E13 [4], 3000 nM	10.7	–
E13 [10], 4.1 nM	–	0.552
E13 [10], 12.3 nM	–	0.4
E13 [10], 37 nM	–	0.0566
E13 [10], 111.1 nM	–	0.0323
E13 [10], 333.3 nM	–	0.00998
E13 [10], 1000 nM	–	0.0119
E13 [10], 3000 nM	–	0.0124
E21 [2], 4.1 nM	4.37	–
E21 [2], 12.3 nM	4.95	–
E21 [2], 37 nM	7.07	–
E21 [2], 111.1 nM	10.1	–
E21 [2], 333.3 nM	12.7	–
E21 [2], 1000 nM	11.4	–
E21 [2], 3000 nM	14.2	–
E21 [8], 4.1 nM	–	0.253
E21 [8], 12.3 nM	–	0.0911
E21 [8], 37 nM	–	0.0242
E21 [8], 111.1 nM	–	0.00808
E21 [8], 333.3 nM	–	0.00862
E21 [8], 1000 nM	–	0.0113
E21 [8], 3000 nM	–	0.00808
E28 [6], 4.1 nM	1.98	–
E28 [6], 12.3 nM	2.51	–
E28 [6], 37 nM	3.933	–
E28 [6], 111.1 nM	5.55	–
E28 [6], 333.3 nM	10.4	–
E28 [6], 1000 nM	9.23	–
E28 [6], 3000 nM	9.7	–
E28 [12], 4.1 nM	–	0.328
E28 [12], 12.3 nM	–	0.281
E28 [12], 37 nM	–	0.1561
E28 [12], 111.1 nM	–	0.111
E28 [12], 333.3 nM	–	0.00802
E28 [12], 1000 nM	–	0.00283
E28 [12], 3000 nM	–	0.00707
E34 [3], 4.1 nM	2.24	–
E34 [3], 12.3 nM	3.35	–
E34 [3], 37 nM	6.13	–
E34 [3], 111.1 nM	7.1327	–
E34 [3], 333.3 nM	10.8	–
E34 [3], 1000 nM	13	–
E34 [3], 3000 nM	11.9	–
E34 [9], 4.1 nM	–	0.41
E34 [9], 12.3 nM	–	0.345
E34 [9], 37 nM	–	0.149
E34 [9], 111.1 nM	–	0.0449
E34 [9], 333.3 nM	–	0.0206
E34 [9], 1000 nM	–	0.0187
E34 [9], 3000 nM	–	0.0159
E57 [1], 4.1 nM	2.84	–
E57 [1], 12.3 nM	3.23	–
E57 [1], 37 nM	4.87	–
E57 [1], 111.1 nM	5.13	–
E57 [1], 333.3 nM	8.15	–
E57 [1], 1000 nM	9.97	–
E57 [1], 3000 nM	10.7	–
E57 [7], 4.1 nM	–	0.765
E57 [7], 12.3 nM	–	0.402
E57 [7], 37 nM	–	0.056
E57 [7], 111.1 nM	–	0.0464
E57 [7], 333.3 nM	–	0.00359
E57 [7], 1000 nM	–	0.00745
E57 [7], 3000 nM	–	0.00248
FT3469 [5], 4.1 nM	3.69	–
FT3469 [5], 12.3 nM	3.49	–
FT3469 [5], 37 nM	4.19	–
FT3469 [5], 111.1 nM	5.8	–
FT3469 [5], 333.3 nM	10.7	–
FT3469 [5], 1000 nM	10.1	–
FT3469 [5], 3000 nM	9.44	–
FT3469 [11], 4.1 nM	–	0.518
FT3469 [11], 12.3 nM	–	0.481
FT3469 [11], 37 nM	–	0.364
FT3469 [11], 111.1 nM	–	0.194
FT3469 [11], 333.3 nM	–	0.00806
FT3469 [11], 1000 nM	–	0.0296
FT3469 [11], 3000 nM	–	0.0116

O=C(/C=C/c1cccnc1)NCCCCC1CCN(C(=O)c2ccccc2)CC1 [Daporinad]
Conditions	phenotypic distance	surviving fraction
E13 [4], 4.1 nM	1.28	–
E13 [4], 12.3 nM	2.03	–
E13 [4], 37 nM	2.19	–
E13 [4], 111.1 nM	2.19	–
E13 [4], 333.3 nM	2.17	–
E13 [4], 1000 nM	2.27	–
E13 [4], 3000 nM	2.04	–
E13 [10], 4.1 nM	–	0.897
E13 [10], 12.3 nM	–	0.759
E13 [10], 37 nM	–	0.712
E13 [10], 111.1 nM	–	0.732
E13 [10], 333.3 nM	–	0.779
E13 [10], 1000 nM	–	0.738
E13 [10], 3000 nM	–	0.728
E21 [2], 4.1 nM	0.674	–
E21 [2], 12.3 nM	0.879	–
E21 [2], 37 nM	1.12	–
E21 [2], 111.1 nM	1.73	–
E21 [2], 333.3 nM	2.59	–
E21 [2], 1000 nM	2.69	–
E21 [2], 3000 nM	2.46	–
E21 [8], 4.1 nM	–	0.918
E21 [8], 12.3 nM	–	0.977
E21 [8], 37 nM	–	1.06
E21 [8], 111.1 nM	–	0.924
E21 [8], 333.3 nM	–	0.916
E21 [8], 1000 nM	–	0.916
E21 [8], 3000 nM	–	0.873
E28 [6], 4.1 nM	3.04	–
E28 [6], 12.3 nM	3.29	–
E28 [6], 37 nM	3.514	–
E28 [6], 111.1 nM	3.26	–
E28 [6], 333.3 nM	3.25	–
E28 [6], 1000 nM	3.51	–
E28 [6], 3000 nM	3.47	–
E28 [12], 4.1 nM	–	0.436
E28 [12], 12.3 nM	–	0.459
E28 [12], 37 nM	–	0.4196
E28 [12], 111.1 nM	–	0.415
E28 [12], 333.3 nM	–	0.423
E28 [12], 1000 nM	–	0.351
E28 [12], 3000 nM	–	0.379
E34 [3], 4.1 nM	1.25	–
E34 [3], 12.3 nM	1.37	–
E34 [3], 37 nM	1.45	–
E34 [3], 111.1 nM	1.6	–
E34 [3], 333.3 nM	1.35	–
E34 [3], 1000 nM	2.32	–
E34 [3], 3000 nM	1.37	–
E34 [9], 4.1 nM	–	1.02
E34 [9], 12.3 nM	–	0.865
E34 [9], 37 nM	–	0.916
E34 [9], 111.1 nM	–	0.851
E34 [9], 333.3 nM	–	0.922
E34 [9], 1000 nM	–	0.8551
E34 [9], 3000 nM	–	1.04
E57 [1], 4.1 nM	2.92	–
E57 [1], 12.3 nM	3.204	–
E57 [1], 37 nM	3.213	–
E57 [1], 111.1 nM	3.31	–
E57 [1], 333.3 nM	3.19	–
E57 [1], 1000 nM	3.44	–
E57 [1], 3000 nM	3.491	–
E57 [7], 4.1 nM	–	0.731
E57 [7], 12.3 nM	–	0.677
E57 [7], 37 nM	–	0.693
E57 [7], 111.1 nM	–	0.71
E57 [7], 333.3 nM	–	0.668
E57 [7], 1000 nM	–	0.562
E57 [7], 3000 nM	–	0.621
FT3469 [5], 4.1 nM	2.48	–
FT3469 [5], 12.3 nM	2	–
FT3469 [5], 37 nM	2.62	–
FT3469 [5], 111.1 nM	2.52	–
FT3469 [5], 333.3 nM	2.17	–
FT3469 [5], 1000 nM	2.56	–
FT3469 [5], 3000 nM	2.25	–
FT3469 [11], 4.1 nM	–	0.8405
FT3469 [11], 12.3 nM	–	0.956
FT3469 [11], 37 nM	–	0.831
FT3469 [11], 111.1 nM	–	0.93
FT3469 [11], 333.3 nM	–	0.899
FT3469 [11], 1000 nM	–	0.892
FT3469 [11], 3000 nM	–	0.975

Reference: the supplement of paper PMC13207355
